Source: patent EP2145538A1 (priority 2008, dated 2010)
Converted amounts (≈) assume the structure as drawn. “And” between values parts separate entries of the source, which are not always exact repeats. Equal values may be shown once. “Also recorded” adds a separate entry of the source. Read-outs that look alike come from different tables or passages of the source.

What was measured:
[1] = tested on: Weizenpflanzen; conditions: in vivo
[2] = tested on: Blumeria graminis f. sp. tritici; experiment: Powdery mildew rating on sprayed wheat plants (MOLL et al. 1996); assay type: in vivo; conditions: 7 dpi; spray treatment at 3-leaf stage; AI-1 and AI-2 1 mg/ml, CI 100 µg/ml; Kontrolle 60
From the text: Nach einer Sprühbehandlung der Weizenpflanzen im 3-Blatt-Stadium und anschließender Inokulation (nach Abtrocknen) mit Mehltau Blumeria graminis f. sp. tritici sind eindeutige Hemmeffekte zu erkennen (Figur 25-27). Eine Bonitur nach MOLL et al. (1996) ergab für den Amylase-Inhibitor AI-1 eine Befallsreduktion von 60% auf 7%, für den Amylase-Inhibitor AI-2 auf 1 % und für den Cellulase-Inhibitor CI auf 10% (Tabelle 3). Tab. 3: Bonitur des Mehltaubefalls (Blumeria graminis f. sp. tritici) nach MOLL et al. (1996) 7 dpi.

[3] = tested on: Amylasen von mit F. graminearum infizierten Pflanzen; assay type: biochemical, Fusarium graminearum; conditions: for Hemmung der Enzymaktivität: result in words
[4] = tested on: Fusarium graminearum; assay type: in vivo
[5] = tested on: Fusarium graminearum; assay type: in vivo; conditions: for Fusarium Protein Equivalent (µg/g), Mittelwert: above-ground parts; for Fusarium Protein Equivalent (µg/g), Mittelwert / Fusarium Protein Equivalent (µg /g), Mean: 2 weeks after sowing; for Aussehen der behandelten, infizierten Pflanzen (Fotos): folded filter, very high infection pressure; for Reduktion des Befalls der Wurzeln (ELISA): roots of infected wheat seedlings on folded filter; for Fusarium Protein Equivalent (µg /g), Mean: roots
[6] = biological target: Amylase aus Aspergillus oryzae (Aspergillus oryzae, UniProt P0C1B3); experiment: Amylase activity assay in microtiter plates (dye-labelled starch substrate), commercial enzymes; assay type: biochemical; conditions: both Aspergillus amylases (35 U/mg Fluka, 200 U/mg Sigma); result in words
From the text: (§1) Diese Methode basiert auf folgendem Prinzip:

[7] = biological target: T1, Humanspeichelamylase (Homo sapiens, UniProt P0DUB6); experiment: Amylase activity assay in microtiter plates (dye-labelled starch substrate), commercial enzyme; assay type: biochemical; conditions: for Hemmung der Enzymaktivität: result in words
T1 construct: purchased Sigma
T1 sequence (P0DUB6 16-511): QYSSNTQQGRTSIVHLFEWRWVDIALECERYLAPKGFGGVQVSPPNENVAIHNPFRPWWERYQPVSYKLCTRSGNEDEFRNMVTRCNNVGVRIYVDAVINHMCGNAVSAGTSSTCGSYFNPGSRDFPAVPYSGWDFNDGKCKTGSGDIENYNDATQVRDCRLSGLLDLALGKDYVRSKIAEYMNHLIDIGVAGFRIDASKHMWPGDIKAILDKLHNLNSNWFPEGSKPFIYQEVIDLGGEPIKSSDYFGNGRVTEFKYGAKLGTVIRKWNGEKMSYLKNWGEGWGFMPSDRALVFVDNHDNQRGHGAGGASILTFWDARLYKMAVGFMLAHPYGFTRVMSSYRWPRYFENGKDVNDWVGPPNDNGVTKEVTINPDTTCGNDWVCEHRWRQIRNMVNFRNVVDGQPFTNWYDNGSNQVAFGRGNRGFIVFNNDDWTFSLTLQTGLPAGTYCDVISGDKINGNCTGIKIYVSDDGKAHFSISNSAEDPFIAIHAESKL
From the text: as §1

[8] = tested on: Amylase aus Bacillus sp.; experiment: as above; assay type: biochemical; conditions: for Hemmung der Enzymaktivität: result in words
From the text: as §1

[9] = tested on: Fusarium graminearum; experiment: microbe, parasite or virus in culture; assay type: cell-based; conditions: for Einfluss auf das Wachstum von Fusarium graminearum: Saccharose as sole C source, up to 14 days
[10] = tested on: Amylasen aus Kulturfiltrat (Strohextrakt) von in vitro angezogenem Fusarium graminearum; assay type: biochemical; conditions: for Hemmung der Enzymaktivität: result in words
[11] = tested on: Erbsen; experiment: Plant tolerance: germination of peas after imbibition in inhibitor solution; assay type: in vivo; conditions: imbibition in a solution of 1 mg/ml; result in words
[12] = biological target: T2, Cellobiohydrolase I (CBH I) (Trichoderma reesei, UniProt P62694); conditions: result in words; cited from earlier work
T2 sequence (P62694 18-513): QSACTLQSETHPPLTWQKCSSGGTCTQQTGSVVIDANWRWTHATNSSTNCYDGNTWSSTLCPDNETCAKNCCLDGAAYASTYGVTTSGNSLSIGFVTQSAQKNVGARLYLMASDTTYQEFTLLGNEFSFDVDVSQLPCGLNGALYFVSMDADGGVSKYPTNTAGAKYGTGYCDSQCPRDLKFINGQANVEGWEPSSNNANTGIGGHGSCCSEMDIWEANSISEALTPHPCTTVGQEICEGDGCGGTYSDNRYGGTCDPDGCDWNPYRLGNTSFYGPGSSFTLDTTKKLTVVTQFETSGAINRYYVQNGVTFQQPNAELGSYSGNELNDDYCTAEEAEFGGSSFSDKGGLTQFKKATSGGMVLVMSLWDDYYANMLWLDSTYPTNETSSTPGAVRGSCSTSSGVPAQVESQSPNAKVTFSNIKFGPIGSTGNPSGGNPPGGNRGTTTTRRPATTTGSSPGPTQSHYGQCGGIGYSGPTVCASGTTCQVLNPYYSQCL

[13] = biological target: T3, Endoglukanase II (EG II) (Trichoderma reesei, UniProt P07982); conditions: result in words; cited from earlier work
T3 sequence (P07982 22-418): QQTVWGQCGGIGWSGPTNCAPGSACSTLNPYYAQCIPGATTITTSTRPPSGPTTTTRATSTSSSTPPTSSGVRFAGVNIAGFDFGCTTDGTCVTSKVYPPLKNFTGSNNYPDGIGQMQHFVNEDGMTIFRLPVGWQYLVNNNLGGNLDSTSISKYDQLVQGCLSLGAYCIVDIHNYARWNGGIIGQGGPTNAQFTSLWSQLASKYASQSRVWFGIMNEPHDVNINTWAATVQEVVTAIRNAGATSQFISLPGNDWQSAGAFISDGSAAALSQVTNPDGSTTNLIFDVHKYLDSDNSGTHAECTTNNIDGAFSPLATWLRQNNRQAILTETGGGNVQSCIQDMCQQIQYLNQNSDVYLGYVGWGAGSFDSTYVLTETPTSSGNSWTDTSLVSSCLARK

[14] = infected with F.g. + inhibitor, infected control 341,44
[15] = infected with F.g. + inhibitor, infected control 1261,2
[16] = Stärke as sole C source, 14 days

CC1OC(OC2C(CO)OC(OC3C(CO)OC(O)C(O)C3O)C(O)C2O)C(O)C(O)C1NC1C=C(CO)C(O)C(O)C1O (stereo not drawn) [AI-1, Acarbose]
Hemmung von Keimung und Pflanzenwachstum [1]: weder der Amylase-Inhibitor AI-1 noch der amylasehemmende Wirkung zeigende Cellulose-Inhibitor die Keimung und das Pflanzenwachstum hemmten | Befall (%) [2]: 7% | Amylasen gehemmt bis auf ([3]; 0,5 mg/ml, not totally switched off): 69,2% | Hemmung der Enzymaktivität [3]: starke, wenn auch nicht vollständige Hemmung | Reduktion der Pilzmenge (ELISA) ([4]; Versuch 1, 4 weeks, seed dip treatment): 66% | Hemmung des Pilzwachstums (ELISA) ([4]; Versuch 1, 4 weeks, seed dip treatment, result in words): vollständige Hemmung | Hemmung des Pilzwachstums / Reduktion der Pilzmenge (ELISA) ([4]; Versuch 2, 4 weeks, seed dip treatment): 60% and 85% | Blattfrischgewicht infizierter Pflanzen ([4]; soil substrate, greenhouse, 4 weeks, AI-1 1 mg /ml seed treatment, result in words): hebt diese Frischgewichtsdepression auf; also recorded: gleiche Frischgewicht wie die nicht infizierte Kontrolle | Fusarium Protein Equivalent (µg/g), Mittelwert [5, 14]: 25,2 µg/g | Fusarium Protein Equivalent (µg/g), Mittelwert ([5]; not infected (K) + inhibitor): 2,2 µg/g | Aussehen der behandelten, infizierten Pflanzen (Fotos) ([5]; result in words): fast normal aussehen | Effekt auf der Basis des Frischgewichtes ([5]; infected wheat seedlings on folded filter, 2 weeks, result in words): starke befallreduzierende Effekt; also recorded: positive Effekt | Reduktion des Befalls der Wurzeln (ELISA) ([5]; 2 weeks): 66% and 61% | Fusarium Protein Equivalent (µg /g), Mean [5, 15]: 554,8 µg /g | Fusarium Protein Equivalent (µg /g), Mean ([5]; not infected (K) + inhibitor): 6,3 µg /g | Hemmung der Enzymaktivität [6]: nicht oder nur sehr schwach beeinflusst | IC100 ([7]; Humanamylase (500 U/mg, Sigma), read-out: Konzentration, bei der die Amylase vollständig / total gehemmt wird): 250 µg/mL | Hemmung der Enzymaktivität ([8]; 0,5 mg/ml): ebenfalls gehemmt, jedoch durch diese Konzentration nicht total ausschaltet | MIC ([9]; Fusarium graminearum, 336 h, read-out: Konzentration, bei der das Wachstum total gehemmt wird): 30 µg/mL (≈ 46.5 µM) | inhibition of growth at 15 µg/mL ([9]; Fusarium graminearum, read-out: Hemmung des Wachstums): ~50% | Einfluss auf das Wachstum von Fusarium graminearum ([9]; result in words): keinen negativen Einfluss; also recorded: sogar gefördert | Faktor effektiver als der Cellulase-Inhibitor gegenüber Stärke als Substrat ([9]; total inhibition, 30 µg/ml versus 100 µg/ml): 3 | Konzentration, bei der die Amylasen total gehemmt wurden [10]: 0,06 mg/ml | Amylase-Aktivität reduziert bis auf ([10]; 5 µg/ml, remaining activity): 28%

OCCN1C[C@H](O)[C@@H](O)[C@H](O)[C@H]1CO [AI-2, Miglitol]
Hemmung der Keimung [11]: vollständig | Einfluss auf das ausgewachsene Blatt [1]: keinen Einfluss auf das ausgewachsene Blatt | Hemmung der Keimung [1]: vollständig | Hemmung der Keimung der Weizenpflanzen [1]: so stark hemmte, dass sich Jungpflanzen nicht entwickeln konnten | Befall (%) [2]: 1% | Hemmung der Enzymaktivität [3]: wirkungslos; also recorded: keine Wirkung; also recorded: konnte weder die im Handel erhältlichen Amylasen bzw. Cellulasen der verschiedenen Mikroorganismen noch die von Fusarium graminearum in vitro oder in der Pflanze gebildeten Amylasen inhibieren | Fusarium Protein Equivalent (µg /g), Mean [5, 15]: 813,0 µg /g | Fusarium Protein Equivalent (µg /g), Mean ([5]; not infected (K) + inhibitor): 7,6 µg /g | Hemmung der Enzymaktivität [6]: weder die Humanamylase noch die verwendeten käuflichen Amylasen aus Bakterien bzw. Pilzen hemmt; also recorded: nicht zu hemmen vermochte | Hemmung der Enzymaktivität [7]: weder die Humanamylase noch die verwendeten käuflichen Amylasen aus Bakterien bzw. Pilzen hemmt; also recorded: nicht zu hemmen vermochte | Hemmung der Enzymaktivität [8]: weder die Humanamylase noch die verwendeten käuflichen Amylasen aus Bakterien bzw. Pilzen hemmt; also recorded: nicht zu hemmen vermochte | Einfluss auf das Wachstum von Fusarium graminearum ([9]; result in words): keinen Einfluss | Einfluss auf das Pilzwachstum ([9]; Stärke as sole C source, result in words): keinen Einfluss | Einfluss auf das Wachstum des Pilzes in vitro ([9]; result in words): keinerlei hemmenden Einfluss | Hemmung der Enzymaktivität [10]: konnte weder die im Handel erhältlichen Amylasen bzw. Cellulasen der verschiedenen Mikroorganismen noch die von Fusarium graminearum in vitro oder in der Pflanze gebildeten Amylasen inhibieren

Na2PdCl6 · 4 H2O [CI]
Inhibition [12]: in starkem Maße zu inhibieren | Hemmung von Keimung und Pflanzenwachstum [1]: weder der Amylase-Inhibitor AI-1 noch der amylasehemmende Wirkung zeigende Cellulose-Inhibitor die Keimung und das Pflanzenwachstum hemmten | negativer Effekt auf das Pflanzenwachstum [1]: keinerlei negativen Effekt auf das Pflanzenwachstum | Befall (%) [2]: 10% | Hemmung der Enzymaktivität [3]: nicht bzw. nur unwesentlich hemmt | Hemmung der Enzymaktivität ([3]; listed as Cellulase-Inhibitor): unbeeinflusst blieben | Hemmung des Pilzwachstums ([4]; soil substrate, greenhouse, 4 weeks, both trials, CI 100µg /ml seed treatment, result in words): nicht hemmt; also recorded: keinerlei Effekt | Fusarium Protein Equivalent (µg/g), Mittelwert [5, 14]: 66,34 µg/g | Fusarium Protein Equivalent (µg/g), Mittelwert ([5]; not infected (K) + inhibitor): 0,04 µg/g | Aussehen der behandelten, infizierten Pflanzen (Fotos) ([5]; result in words): grüner aus, sind aber im Wuchs doch deutlich reduziert | Reduktion des Befalls der Wurzeln (ELISA) ([5]; 2 weeks): 51% | Fusarium Protein Equivalent (µg /g), Mean [5, 15]: 618,9 µg /g | Fusarium Protein Equivalent (µg /g), Mean ([5]; not infected (K) + inhibitor): 49,0 µg /g | Inhibition [13]: in starkem Maße zu inhibieren | Hemmung der Enzymaktivität [6]: unbeeinflusst blieben | Konzentration, bei der die Amylase vollständig / total gehemmt wird ([7]; Humanamylase (500 U/mg, Sigma)): 25 µg/mL | Hemmung der Enzymaktivität [7]: bei höherer Konzentration hemmte | Konzentration, bei der die Amylase total gehemmt wird ([8]; Bacillus-Amylase): 100 µg/mL | Hemmung der Enzymaktivität [8]: bei höherer Konzentration hemmte | Hemmung des Pilzwachstums ([9]; Cellulose as C source, 12,5 µg/ml, 14 days, result in words): deutliche Wachstumsdepression | Wachstumsdepression ([9]; Cellulose as C source, ab 50 bis 100 µg/mL, 14 days): 100% | Konzentration, bei der das Wachstum total gehemmt ist ([9]; Cellulose as sole C source): 50 µg/mL | Wachstumsrate reduziert um ([9]; Cellulose as sole C source, 12,5 µg/ml): ca. 50% | Einfluss auf das Wachstum von Fusarium graminearum ([9]; result in words): nicht gehemmt | Einfluss auf das Wachstum ([9]; Stärke as sole C source, 6,5-12,5 µg/ml, result in words): verifizierbare Wachstumsförderung | Konzentration, ab der das Wachstum partiell gehemmt wird [9, 16]: ≥ 75 µg/mL | Konzentration, bei der das Wachstum total gehemmt wird [9, 16]: ≥ 100 µg/mL | Konzentration, bei der das Wachstum total gehemmt wird ([9]; Stärke as sole C source, 14 days, listed as Cellulase-Inhibitor): 100 µg/mL | Hemmung der Enzymaktivität [10]: nicht bzw. nur unwesentlich hemmt | Hemmung der Enzymaktivität ([10]; listed as Cellulase-Inhibitor): bei höheren Konzentrationen auch die Amylasen des Fusarium-Kulturfiltrates hemmt; also recorded: unbeeinflusst blieben
